Assay results published in patent US11208384B2, “Sulfinylpyridines and their use in the treatment of cancer” (Oblique Therapeutics AB, priority 2017, dated 2021).

How the values were obtained:
[1] = biological target: recombinant thioredoxin reductase 1 (TrxR1) (Homo sapiens (Human), UniProt Q16881); assay: Inhibition of recombinant TrxR1 (DTNB assay); assay type: biochemical; conditions: 30 nM TrxR1, 250 μM NADPH, 15 minutes incubation, O.D. 412 nm, read-out: TrxR inhibition (IC50)
Description: (§1) Small molecule inhibition of recombinant thioredoxin reductase 1 (TrxR1) and gluthathione reductase (GR) was examined in 96-well plate format. 30 nM TrxR1 was incubated in the presence of 250 μM NADPH, 0.1 mg/ml BSA, and various concentrations of compound (1% DMSO final) in 50 mM Tris (pH 7.5) and 2 mM EDTA buffer for 15 minutes. Following the incubation period, 2 mM DTNB was added to each well and the change in O.D. at 412 nm was followed. Percent activity was determined using DMSO vehicle and no TrxR1 (blank) controls. 2 nM GR was incubated in the presence of 250 μM NADPH, 0.1 mg/ml BSA, and various concentrations of compounds (1% DMSO final) in 50 mM Tris (pH 7.5) and 2 mM EDTA buffer for 15 minutes. Following the incubation period, 1 mM GSSG was added to each well and the change in O.D. at 340 nm was followed. Percent activity was determined using DMSO vehicle and no GR (blank) controls.

[2] = biological target: recombinant gluthathione reductase (GR) (Homo sapiens (Human), UniProt P00390); assay: Inhibition of recombinant GR (GSSG assay); assay type: biochemical; conditions: 2 nM GR, 250 μM NADPH, 15 minutes incubation, O.D. 340 nm
Description: as §1

MDA-MB-231 cells = assay: Breast cancer cell viability assay (Alamar Blue); assay type: cell-based; conditions: Homo sapiens, 72 hrs, 10% FBS media containing 25 nM selenite, 2000 cells/well
Description: MDA-MB-231 cells were plated 2000 cells/well in 96-well black optical plates in the presence of 10% FBS media containing 25 nM selenite. The following day cells were treated with various concentrations of compounds (0.1% DMSO final) and incubated for 72 hrs. After the incubation Alamar Blue reagent was added to each well and incubated for additional 3 hrs. Fluorescence was read ex:530 nm/em:590 nm, and percent of viability was determined using DMSO vehicle and no cell (blank) controls.

U-87 MG = assay: Cancer cell viability assay (MTT), U-87 MG; assay type: cell-based; conditions: Homo sapiens, 72 hrs, 4000 cells/well, 10% FBS media
Description: (§2) Breast cancer and glioblastoma cell lines were plated 4000 cells/well in 96-well plates in the presence of 10% FBS media. The following day cells were treated with various concentrations of the compound of Example 1 (0.1% DMSO final) and incubated for 72 hrs. After the incubation An MTT assay was performed to access cell viability. Percent of viability was determined using DMSO vehicle and no cell (blank) controls.

MDA-MB-231 = assay: Cancer cell viability assay (MTT), MDA-MB-231; assay type: cell-based; conditions: Homo sapiens, 72 hrs, 4000 cells/well, 10% FBS media
Description: as §2

MDA-MB-468 = assay: Cancer cell viability assay (MTT), MDA-MB-468; assay type: cell-based; conditions: Homo sapiens, 72 hrs, 4000 cells/well, 10% FBS media
Description: as §2

recombinant gluthathione reductase (GR), sequence (P00390 44-522): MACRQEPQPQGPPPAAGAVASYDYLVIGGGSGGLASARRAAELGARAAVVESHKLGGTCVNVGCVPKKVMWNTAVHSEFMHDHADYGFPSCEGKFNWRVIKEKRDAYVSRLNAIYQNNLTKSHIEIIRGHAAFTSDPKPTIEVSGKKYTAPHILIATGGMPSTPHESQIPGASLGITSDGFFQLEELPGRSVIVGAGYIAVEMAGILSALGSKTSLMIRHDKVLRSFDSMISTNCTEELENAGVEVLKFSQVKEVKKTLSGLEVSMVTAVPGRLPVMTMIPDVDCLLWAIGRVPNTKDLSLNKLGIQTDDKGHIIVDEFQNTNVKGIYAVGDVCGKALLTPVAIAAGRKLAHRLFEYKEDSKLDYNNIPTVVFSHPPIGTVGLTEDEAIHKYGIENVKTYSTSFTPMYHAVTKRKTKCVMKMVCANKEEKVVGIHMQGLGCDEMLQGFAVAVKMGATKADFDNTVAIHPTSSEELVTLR
recombinant thioredoxin reductase 1 (TrxR1), sequence (Q16881 151-649): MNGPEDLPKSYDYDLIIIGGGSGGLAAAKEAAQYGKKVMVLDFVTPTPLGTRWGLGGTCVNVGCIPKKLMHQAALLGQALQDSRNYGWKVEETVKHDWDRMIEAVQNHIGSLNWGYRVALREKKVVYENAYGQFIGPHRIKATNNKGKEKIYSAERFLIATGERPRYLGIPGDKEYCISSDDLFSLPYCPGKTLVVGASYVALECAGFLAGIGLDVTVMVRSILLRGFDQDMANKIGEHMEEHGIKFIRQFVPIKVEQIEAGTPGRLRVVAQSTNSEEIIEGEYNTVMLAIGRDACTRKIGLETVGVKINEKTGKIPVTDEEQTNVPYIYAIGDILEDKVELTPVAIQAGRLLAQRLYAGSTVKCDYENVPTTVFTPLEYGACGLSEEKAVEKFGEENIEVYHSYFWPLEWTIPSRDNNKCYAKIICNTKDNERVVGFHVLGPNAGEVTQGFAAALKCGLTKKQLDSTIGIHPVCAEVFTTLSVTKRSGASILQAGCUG

SMILES: COc1ccc([N+](=O)[O-])c([S+]([O-])c2ccc(Cl)cc2)n1 (stereo not drawn) [Example 1, 2-((4-Chlorophenyl)sulfinyl)-6-methoxy-3-nitropyridine]
- IC50 [1]: 0.00316 µM
- IC50 [2]: 41.3 µM
- IC50 (MDA-MB-231 cells): 2.99 µM
- IC50 (U-87 MG): 6.76 µM
- IC50 (MDA-MB-231): 5.26 µM
- IC50 (MDA-MB-468): 3.86 µM
